Data on 20 compounds can be found in PubChem BioAssay AID248 (DTP/NCI, 2004).

For the assay, the system named is L1210 leukemia ip in BDF1 mice, survival T/C. The assay can be described thus: NCI In Vivo Anticancer Drug Screen. Data for tumor model L1210 Leukemia (intraperitoneal) in B6D2F1 (BDF1) mice. As to conditions: endpoint: mean survival time, higher = longer survival. In a few lines:
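Transplanted-tumor mice were given test agent; controls received vehicle only. Survival readings from the two groups were divided (treated over control).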

Setting [1] is: dose: 25.0 mg/kg/injection, schedule: Q01DX009 (ip), vehicle: saline.
Setting [2] is: dose: 50.0 mg/kg/injection, schedule: Q01DX009 (ip), vehicle: saline.
Setting [3] is: dose: 100.0 mg/kg/injection, schedule: Q01DX009 (ip), vehicle: saline.
Setting [4] is: dose: 100.0 mg/kg/injection, schedule: Q01DX001 (ip), vehicle: saline.
The mark [5] stands for this setting: dose: 200.0 mg/kg/injection, schedule: Q01DX001 (ip), vehicle: saline.
The mark [6] stands for this setting: dose: 100.0 mg/kg/injection, schedule: Q01DX001 (ip), vehicle: carboxymethylcellulose (CMC).
[7] abbreviates: dose: 200.0 mg/kg/injection, schedule: Q01DX001 (ip), vehicle: carboxymethylcellulose (CMC).
[8] abbreviates: dose: 400.0 mg/kg/injection, schedule: Q01DX001 (ip), vehicle: carboxymethylcellulose (CMC).
Setting [9] is: dose: 25.0 mg/kg/injection, schedule: Q04DX003 (ip), vehicle: saline with Tween-80.
[10] abbreviates: dose: 50.0 mg/kg/injection, schedule: Q04DX003 (ip), vehicle: saline with Tween-80.
Where [11] appears, read: dose: 100.0 mg/kg/injection, schedule: Q04DX003 (ip), vehicle: saline with Tween-80.

Inconclusive results and toxic doses are left out.

On to `Cc1ccc(S(=O)(=O)OCCN2C(=O)NC(c3ccccc3)(c3ccccc3)C2=O)cc1`, for which the T/C is, setting by setting: (dose: 3.1 mg/kg/injection, schedule: Q01DX009 (ip), vehicle: saline) 104 % of control; (dose: 6.25 mg/kg/injection, schedule: Q01DX009 (ip), vehicle: saline) 100 % of control; (dose: 12.5 mg/kg/injection, schedule: Q01DX009 (ip), vehicle: saline) 104 % of control; under setting [1], 98 % of control; under setting [2], 100 % of control; under setting [3], 102 % of control. The T/C runs as follows: (dose: 150.0 mg/kg/injection, schedule: Q04DX003 (ip), vehicle: saline with Tween-80) 109 % of control; (dose: 225.0 mg/kg/injection, schedule: Q04DX003 (ip), vehicle: saline with Tween-80) 109 % of control; (dose: 335.0 mg/kg/injection, schedule: Q04DX003 (ip), vehicle: saline with Tween-80) 98 % of control.
In the case of `OC12CCCCC1Oc1ccc3ccccc3c12` (stereo not given), the T/C was 103 % of control under setting [4]; 113 % of control under setting [5]; 100 % of control (dose: 400.0 mg/kg/injection, schedule: Q01DX001 (ip), vehicle: saline).
On to `CCN(CC)c1ccc(/C=C\C(=O)c2ccccc2)cc1`, for which the T/C was 97 % of control (dose: 100.0 mg/kg/injection, schedule: Q01DX009 (ip), vehicle: Klucel (hydroxypropylcellulose) (HPC)); 100 % of control (dose: 200.0 mg/kg/injection, schedule: Q01DX009 (ip), vehicle: Klucel (hydroxypropylcellulose) (HPC)); 100 % of control (dose: 400.0 mg/kg/injection, schedule: Q01DX009 (ip), vehicle: Klucel (hydroxypropylcellulose) (HPC)).
On to `COC(=O)c1sc2ccccc2c1C`, for which the T/C by setting is: under setting [6], 104 % of control; under setting [7], 98 % of control; under setting [8], 98 % of control.
Consider `COC(=O)CC(C(=O)OC)C(=O)OC`, for which the T/C is 105 % of control (dose: 75.0 mg/kg/injection, schedule: Q01DX001 (ip), vehicle: Klucel (hydroxypropylcellulose) (HPC)); 97 % of control (dose: 75.0 mg/kg/injection, schedule: Q01DX009 (ip), vehicle: Klucel (hydroxypropylcellulose) (HPC)); 103 % of control (dose: 150.0 mg/kg/injection, schedule: Q01DX001 (ip), vehicle: Klucel (hydroxypropylcellulose) (HPC)); 105 % of control (dose: 150.0 mg/kg/injection, schedule: Q01DX009 (ip), vehicle: Klucel (hydroxypropylcellulose) (HPC)); 90 % of control (dose: 300.0 mg/kg/injection, schedule: Q01DX001 (ip), vehicle: Klucel (hydroxypropylcellulose) (HPC)); 105 % of control (dose: 300.0 mg/kg/injection, schedule: Q01DX009 (ip), vehicle: Klucel (hydroxypropylcellulose) (HPC)).
For `Cc1c(C(C)c2[nH]c3ccccc3c2C)[nH]c2ccccc12`, the T/C is, setting by setting: (dose: 50.0 mg/kg/injection, schedule: Q01DX001 (ip), vehicle: other) 98 % of control; (dose: 100.0 mg/kg/injection, schedule: Q01DX001 (ip), vehicle: other) 102 % of control; (dose: 200.0 mg/kg/injection, schedule: Q01DX001 (ip), vehicle: other) 91 % of control; (dose: 400.0 mg/kg/injection, schedule: Q01DX001 (ip), vehicle: other) 93 % of control.
Consider `CCCC[As](=O)(O)CCO`, for which the T/C is 102 % of control under setting [9] and 94 % of control under setting [10].
As for `COc1ccc(Nc2nc(N)nc(N)c2N)cc1`, the T/C (dose: 100.0 mg/kg/injection, schedule: Q01DX Z (ip), vehicle: saline) was 87 % of control.
As to `CCCN1CCN(c2ccccc2)CC1`, the T/C (dose: 25.0 mg/kg/injection, schedule: Q04DX003 (ip), vehicle: saline) is 90 % of control; the T/C (dose: 50.0 mg/kg/injection, schedule: Q04DX003 (ip), vehicle: saline) is 97 % of control; the T/C (dose: 100.0 mg/kg/injection, schedule: Q04DX003 (ip), vehicle: saline) is 92 % of control.
On to `O=[N+]([O-])c1ncn(Cc2ccccc2)c1Br`, for which the T/C by setting is: (dose: 100.0 mg/kg/injection, schedule: Q04DX003 (ip), vehicle: Klucel (hydroxypropylcellulose) (HPC)) 91 % of control; (dose: 200.0 mg/kg/injection, schedule: Q04DX003 (ip), vehicle: Klucel (hydroxypropylcellulose) (HPC)) 94 % of control; (dose: 400.0 mg/kg/injection, schedule: Q04DX003 (ip), vehicle: Klucel (hydroxypropylcellulose) (HPC)) 89 % of control.
For the compound `CC(C)CCN=C(N)N=C(N)N`, the T/C was 105 % of control under setting [1]; 107 % of control under setting [2]; 104 % of control under setting [3]; 100 % of control (dose: 100.0 mg/kg/injection, schedule: Q04DX002 (ip), vehicle: saline).
Regarding `NC(=S)N/N=C\c1ccccc1/C=N/NC(N)=S`, the T/C is, setting by setting: (dose: 50.0 mg/kg/injection, schedule: Q01DX001 (ip), vehicle: carboxymethylcellulose (CMC)) 109 % of control; under setting [6], 98 % of control; under setting [7], 98 % of control; under setting [8], 98 % of control.
On to `COc1ccc2c(c1)CC/C(=C\c1cccnc1)C2=O`, for which the T/C runs as follows: (dose: 100.0 mg/kg/injection, schedule: Q04DX003 (ip), vehicle: carboxymethylcellulose (CMC)) 110 % of control; (dose: 200.0 mg/kg/injection, schedule: Q04DX003 (ip), vehicle: carboxymethylcellulose (CMC)) 96 % of control; (dose: 400.0 mg/kg/injection, schedule: Q04DX003 (ip), vehicle: carboxymethylcellulose (CMC)) 94 % of control.
Take `C=C(c1cn(C(C)=O)c2ccccc12)c1cn(C(C)=O)c2ccccc12`: the T/C under setting [11] was 95 % of control.
For the compound `CCN(CC)C(N)=Nc1ccc(NC(=O)c2ccc(C(=O)Nc3ccc(N=C(N)N(CC)CC)cc3)cc2)cc1`, the T/C by setting is: (dose: 1.8 mg/kg/injection, schedule: Q01DX Z (ip), vehicle: water) 113 % of control; (dose: 6.5 mg/kg/injection, schedule: Q01DX Z (ip), vehicle: water) 180 % of control; (dose: 50.0 mg/kg/injection, schedule: Q01DX Z (oral), vehicle: water) 101 % of control; (dose: 200.0 mg/kg/injection, schedule: Q01DX Z (oral), vehicle: water) 107 % of control; (dose: 400.0 mg/kg/injection, schedule: Q01DX Z (oral), vehicle: water) 93 % of control.
Turning to `CCCCCCCCCCCCCCCC(=O)NCC(C)NC(=O)CCCCCCCCCCCCCCC` (stereo not given), the T/C was 95 % of control (dose: 75.0 mg/kg/injection, schedule: Q01DX001 (ip), vehicle: saline); 96 % of control (dose: 150.0 mg/kg/injection, schedule: Q01DX001 (ip), vehicle: saline); 103 % of control (dose: 300.0 mg/kg/injection, schedule: Q01DX001 (ip), vehicle: saline).
Regarding `CC12CCC3C(CCC4C(C)(C(=O)O)CCCC34C)(CC1=O)C2` (stereo not given), the T/C is 92 % of control (dose: 100.0 mg/kg/injection, schedule: Q01DX001 (ip), vehicle: saline with Tween-80) and 95 % of control (dose: 200.0 mg/kg/injection, schedule: Q01DX001 (ip), vehicle: saline with Tween-80).
For `CCN(CCS)Cc1ccccc1`, the T/C (dose: 25.0 mg/kg/injection, schedule: Q01DX009 (ip), vehicle: saline with Tween-80) is 95 % of control; the T/C under setting [9] was 94 % of control; the T/C (dose: 50.0 mg/kg/injection, schedule: Q01DX009 (ip), vehicle: saline with Tween-80) is 97 % of control; the T/C under setting [10] is 91 % of control; the T/C (dose: 100.0 mg/kg/injection, schedule: Q01DX009 (ip), vehicle: saline with Tween-80) is 95 % of control; the T/C under setting [11] was 91 % of control.
As for `O=[N+]([O-])c1cc(S(=O)(=O)c2ccccc2)ccc1S(=O)(=O)c1ccccc1`, the T/C is 99 % of control (dose: 50.0 mg/kg/injection, schedule: Q01DX005 (ip), vehicle: saline with Tween-80); 94 % of control (dose: 100.0 mg/kg/injection, schedule: Q01DX005 (ip), vehicle: saline with Tween-80); 89 % of control (dose: 400.0 mg/kg/injection, schedule: Q01DX005 (ip), vehicle: saline with Tween-80).
For the compound `CN(CC(O)CN)c1ccccc1` (stereo not given), the T/C was 102 % of control under setting [4] and 94 % of control under setting [5].
